Test results taken from patent US4322346A, “5H-2,3-Benzodiazepine derivatives” (priority 1978, dated 1982).

What was measured:
Format in all cases: in vivo
mice [1] = experiment: Fighting behaviour test on mice (method of Tedeschi et al.)
Method: (§1) The tests were performed on mice. In the examination of the general behaviour the animals were treated intraperitoneally with 100 mg/kg or orally with 200 mg/kg of the compound in question. The fighting behaviour test was performed according to the method of Tedeschi et al. (J. Pharm. Exp. Ther. 25, 28 /1959/). The observations concerning the general behaviour of the animals and the ED50 values obtained in the fighting behaviour test are summarized in Table 1. In these tests 1-(3,4-dimethoxyphenyl)-4-methyl-5-ethyl-7,8-dimethoxy-5H-2,3-benzodiazepine (Grandaxin) was applied as reference substance.

mice [2] = experiment: General behaviour of mice; conditions: 100 mg/kg i.p. and, resp., 200 mg/kg p.o., SMA = spontaneous motor activity
Method: These compounds decrease the spontaneous motor activity and potentiate the effect of narcotics.
as §1

mice [3] = experiment: Narcosis potentiating activity on mice (sodium hexobarbital narcosis); conditions: for Narcosis potentiating activity on mice, Relative activity: relative to Grandaxin (1.0)
Method: When studying the narcosis potentiating effect, the benzodiazepine compounds were administered to mice in oral dosages of 12.5, 25, 50 or 100 mg/kg, and 30 minutes later 50 mg/kg of sodium hexobarbital were injected intravenously into the animals. The percentage prolongation of the narcosis period, compared to the value observed in the control group treated with sodium hexobarbital alone, was calculated. In these tests Grandaxin was applied again as reference substance.

CCC1C(C)=NN=C(c2ccc(OC)c(OC)c2)c2cc(OC)c(OC)cc21 (centres unmarked) [Grandaxin, 1-(3,4-dimethoxyphenyl)-4-methyl-5-ethyl-7,8-dimethoxy-5H-2,3-benzodiazepine, reference compound]
ED50 (mice [1]; Mus musculus, po, mice): 64 mg/kg | "Fighting behaviour" test on mice, relative activity (mice [1]; relative to Grandaxin (1.0), from ED50 p.o.): 1.0 | General behaviour (mice [2]): Decrease of SMA | Narcosis potentiating activity on mice, Relative activity (mice [3]; 12.5 mg/kg p.o.): 1.0 | Narcosis potentiating activity on mice, Relative activity (mice [3]; 25 mg/kg p.o.): 1.0 | Narcosis potentiating activity on mice, Relative activity (mice [3]; 50 mg/kg p.o.): 1.0 | Narcosis potentiating activity on mice, Relative activity (mice [3]; 100 mg/kg p.o.): 1.0 | change in vivo at 12.5 mg/kg (mice [3]; Mus musculus, po, 12.5 mg/kg p.o., 30 minutes before 50 mg/kg sodium hexobarbital i.v., prolongation vs control, read-out: Narcosis potentiating activity on mice, Increase, %): 17% | change in vivo at 25 mg/kg (mice [3]; Mus musculus, po, 25 mg/kg p.o., 30 minutes before 50 mg/kg sodium hexobarbital i.v., prolongation vs control, read-out: Narcosis potentiating activity on mice, Increase, %): 81% | change in vivo at 50 mg/kg (mice [3]; Mus musculus, po, 50 mg/kg p.o., 30 minutes before 50 mg/kg sodium hexobarbital i.v., prolongation vs control, read-out: Narcosis potentiating activity on mice, Increase, %): 114% | change in vivo at 100 mg/kg (mice [3]; Mus musculus, po, 100 mg/kg p.o., 30 minutes before 50 mg/kg sodium hexobarbital i.v., prolongation vs control, read-out: Narcosis potentiating activity on mice, Increase, %): 239%
